{
  "source": "paper PMC9080521",
  "about": "“Molecular basis of rutin inhibition of protein disulfide isomerase (PDI) by combined in silico and experimental methods” (RSC Advances, 2018)",
  "key": {"[1]": {"biological_target": "murine proteins (mPDI) (Mus musculus, UniProt P09103)", "sequence (P09103 236-369)": "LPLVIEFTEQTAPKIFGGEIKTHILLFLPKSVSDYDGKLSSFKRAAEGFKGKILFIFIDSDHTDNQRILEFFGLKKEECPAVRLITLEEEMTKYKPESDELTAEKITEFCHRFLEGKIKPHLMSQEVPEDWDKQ", "test": "Fluorescence-based direct binding assay, murine proteins as a group", "settings": "murine MBP-mPDI proteins, read-out: binding affinities of murine proteins (IC50)", "method": "(§1) 2. Binding affinity (IC50) of rutin to human or murine MBP-fused PDI proteins The MBP-fused PDI proteins (18 μМ) were incubated with a gradient of 10 rutin’s concentrations differed by 2- or 3-fold and 3 repetitions in 384-well black plate at room temperature for 30 min before measurements. The total assay volume was filled to 100 μL using the assay buffer (pH 7.4) contains 150 mM NaCl, 20 mM Tris, 1 mM EDTA, 1 mM β-ME and 5% glycerin. The fluorescence emission spectrum of the mixture were measured with the excitation at 430 nm and the emission at 530 nm at room temperature on a BioTek Synergy microplate reader with a sensitivity of 100. The data were analyzed by GraphPad Prism (Fig. S3)."}, "[2]": {"biological_target": "T1, human MBP-PDI-b′xa′ (Homo sapiens, UniProt P07237)", "T1 construct": "MBP-PDI-b′xa′(235–479); His-tag; made in house; host or cells: E. coli BL21 (DE3)", "T1 sequence (P07237 235-479)": "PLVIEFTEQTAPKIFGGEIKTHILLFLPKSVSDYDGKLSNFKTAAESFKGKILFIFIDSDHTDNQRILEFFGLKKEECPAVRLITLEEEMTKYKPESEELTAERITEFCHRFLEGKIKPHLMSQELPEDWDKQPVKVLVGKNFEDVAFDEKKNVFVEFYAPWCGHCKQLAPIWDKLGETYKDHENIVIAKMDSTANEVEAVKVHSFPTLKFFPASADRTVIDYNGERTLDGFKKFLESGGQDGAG", "test": "Fluorescence-based direct binding assay", "settings": "protein 18 μM, excitation 430 nm, emission 530 nm, n=3, Standard Error 0.14 μM; read-out: IC50 (binding affinity, fluorescence)", "method": "as §1"}, "[3]": {"biological_target": "full-length human PDI (Homo sapiens, UniProt P07237)", "sequence (P07237 18-508)": "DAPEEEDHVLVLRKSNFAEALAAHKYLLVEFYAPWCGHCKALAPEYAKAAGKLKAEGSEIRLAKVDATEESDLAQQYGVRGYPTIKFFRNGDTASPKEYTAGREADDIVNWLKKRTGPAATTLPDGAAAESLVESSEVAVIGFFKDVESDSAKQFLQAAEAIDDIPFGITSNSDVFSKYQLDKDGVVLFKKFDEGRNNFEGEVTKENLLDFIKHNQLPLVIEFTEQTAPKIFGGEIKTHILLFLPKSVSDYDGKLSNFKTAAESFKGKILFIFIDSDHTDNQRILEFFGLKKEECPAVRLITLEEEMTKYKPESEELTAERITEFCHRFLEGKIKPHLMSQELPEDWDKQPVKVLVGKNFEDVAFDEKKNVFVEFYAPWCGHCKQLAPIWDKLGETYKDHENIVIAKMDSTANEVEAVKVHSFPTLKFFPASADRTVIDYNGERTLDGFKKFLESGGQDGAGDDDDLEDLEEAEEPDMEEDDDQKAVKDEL", "test": "Fluorescence-based direct binding assay", "settings": "protein 18 μM, excitation 430 nm, emission 530 nm, n=3, Standard Error 0.18 μM; read-out: IC50 (binding affinity, fluorescence)", "method": "as §1"}, "[4]": {"biological_target": "T2, murine MBP-mPDI-b′xa′ (Mus musculus, UniProt P09103)", "T2 construct": "MBP-mPDI-b′xa′ (236–477); His-tag; made in house; host or cells: E. coli BL21 (DE3)", "T2 sequence (P09103 236-477)": "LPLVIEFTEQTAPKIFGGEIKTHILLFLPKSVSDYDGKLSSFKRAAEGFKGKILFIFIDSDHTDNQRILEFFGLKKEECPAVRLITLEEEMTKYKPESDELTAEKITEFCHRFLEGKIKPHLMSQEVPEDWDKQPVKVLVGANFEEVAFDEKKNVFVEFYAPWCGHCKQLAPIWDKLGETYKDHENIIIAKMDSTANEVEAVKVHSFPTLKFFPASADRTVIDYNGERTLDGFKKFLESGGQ", "test": "Fluorescence-based direct binding assay", "settings": "protein 18 μM, excitation 430 nm, emission 530 nm, n=3, Standard Error 0.15 μM; read-out: IC50 (binding affinity, fluorescence)", "method": "as §1"}, "[5]": {"biological_target": "T3, human MBP-PDI-b′x (Homo sapiens, UniProt P07237)", "T3 construct": "The human MBP-PDI-b′x (235–369); His-tag; made in house; host or cells: E. coli BL21 (DE3)", "T3 sequence (P07237 235-369)": "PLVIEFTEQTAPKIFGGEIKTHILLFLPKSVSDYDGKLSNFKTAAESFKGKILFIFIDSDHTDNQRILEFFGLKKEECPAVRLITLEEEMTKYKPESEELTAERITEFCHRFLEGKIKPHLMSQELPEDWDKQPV", "test": "Fluorescence-based direct binding assay", "settings": "protein 18 μM, excitation 430 nm, emission 530 nm, n=3, Standard Error 0.16 μM; read-out: IC50 (binding affinity, fluorescence)", "method": "as §1"}, "[6]": {"biological_target": "T4, murine MBP-mPDI-b′x (Mus musculus, UniProt P09103)", "T4 construct": "The murine MBP-mPDI-b′x (236–369); His-tag; made in house; host or cells: E. coli BL21 (DE3)", "T4 sequence (P09103 236-369)": "as the sequence (P09103 236-369) above", "test": "Fluorescence-based direct binding assay", "settings": "protein 18 μM, excitation 430 nm, emission 530 nm, n=3, Standard Error 0.15 μM; read-out: IC50 (binding affinity, fluorescence)", "method": "as §1"}, "[7]": {"biological_target": "T5, MBP-PDI-b′xa′ K328E (Homo sapiens, UniProt P07237, K328E)", "T5 construct": "MBP-PDI-b′xa′(235–479); His-tag; made in house; host or cells: E. coli BL21 (DE3)", "T5 sequence (P07237 235-479 K328E)": "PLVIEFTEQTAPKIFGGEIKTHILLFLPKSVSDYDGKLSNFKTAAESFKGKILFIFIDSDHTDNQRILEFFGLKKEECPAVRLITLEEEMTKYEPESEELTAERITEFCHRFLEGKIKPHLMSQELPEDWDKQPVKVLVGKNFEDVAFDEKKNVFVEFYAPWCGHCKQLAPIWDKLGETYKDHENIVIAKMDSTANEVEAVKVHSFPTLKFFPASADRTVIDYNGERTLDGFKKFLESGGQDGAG", "test": "Insulin reduction assay", "type": "biochemical", "settings": "rutin 100 μM", "method": "(§2) The insulin reduction assay was performed to assess the enzymatic activity of PDI and its MBP-fused recombinant proteins. PDI can reduce insulin in the presence of dithiothreitol (DTT) along with increase in turbidity of the reaction mixture. We thus monitored spectrophotometrically the aggregation of reduced insulin through the increase of turbidity. The reductase activity was measured in 100 μL in presence of 600 μM insulin, 1.5 μM PDI and recombinant PDI proteins, 1 mM DTT, and with protein buffer (pH 7.4), at room temperature over 100 min by absorption at 650 nm. For inhibition assay, 100 μM of rutin, kaempferitrin, tiliroside and 2′-O-galloylhyperin or control buffer was added to the reaction system.\n(§3) We further used the insulin reduction assay to measure the reductase activities of these site-directed MBP-PDI-b′xa′ mutants. This assay has typically good reproducibility as shown by a control experiment with three repetitions (Fig. S7 ^†). We found the PDI mutants maintained reductase activities in the presence of dithiothreitol (DTT). The H354A mutation lowered the reductase activity of wt MBP-PDI-b′xa′ (Fig. 3G) while other mutants had similar reductase activities with that of wt MBP-PDI-b′xa′ (Fig. 3C, F and H–J). Addition of rutin inhibited the reductase activities of both wt MBP-PDI-b′xa′ and the mutants (Fig. 3C and F–J). […] We quantified the inhibition of rutin on these MBP-PDI-b′xa′ mutants by measuring the increase of turbidity (OD650 at 100 min) upon addition of rutin (Fig. 3K)."}, "[8]": {"biological_target": "T6, MBP-PDI-b′xa′ H354A (Homo sapiens, UniProt P07237, H354A)", "T6 construct": "MBP-PDI-b′xa′(235–479); His-tag; made in house; host or cells: E. coli BL21 (DE3)", "T6 sequence (P07237 235-479 H354A)": "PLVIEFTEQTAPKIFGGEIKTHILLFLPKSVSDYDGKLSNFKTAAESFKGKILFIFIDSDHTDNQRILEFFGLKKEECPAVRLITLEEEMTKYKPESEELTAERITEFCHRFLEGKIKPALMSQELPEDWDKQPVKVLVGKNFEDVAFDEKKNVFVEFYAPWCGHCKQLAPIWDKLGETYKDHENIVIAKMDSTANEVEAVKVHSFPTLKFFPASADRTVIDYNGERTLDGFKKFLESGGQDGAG", "test": "Insulin reduction assay", "type": "biochemical", "settings": "rutin 100 μM", "method": "as §2, §3"}, "[9]": {"biological_target": "T7, wt MBP-PDI-b′xa′ (Homo sapiens, UniProt P07237)", "T7 construct": "MBP-PDI-b′xa′(235–479); His-tag; made in house; host or cells: E. coli BL21 (DE3)", "T7 sequence (P07237 235-479)": "as the sequence (P07237 235-479) above", "test": "Insulin reduction assay", "type": "biochemical", "method": "as §2, §3"}, "[10]": {"biological_target": "T8, MBP-PDI-b′xa′ L355R (Homo sapiens, UniProt P07237, L355R)", "T8 construct": "MBP-PDI-b′xa′(235–479); His-tag; made in house; host or cells: E. coli BL21 (DE3)", "T8 sequence (P07237 235-479 L355R)": "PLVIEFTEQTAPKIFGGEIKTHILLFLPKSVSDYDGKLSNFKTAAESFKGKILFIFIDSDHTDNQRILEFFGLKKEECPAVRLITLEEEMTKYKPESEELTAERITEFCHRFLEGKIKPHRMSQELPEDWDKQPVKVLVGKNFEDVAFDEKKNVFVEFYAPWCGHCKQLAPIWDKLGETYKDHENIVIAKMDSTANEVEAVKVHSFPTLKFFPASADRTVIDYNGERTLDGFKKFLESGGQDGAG", "test": "Insulin reduction assay", "type": "biochemical", "settings": "rutin 100 μM", "method": "as §2, §3"}, "[11]": {"biological_target": "T9, MBP-PDI-b′xa′ E359A (Homo sapiens, UniProt P07237, E359A)", "T9 construct": "MBP-PDI-b′xa′(235–479); His-tag; made in house; host or cells: E. coli BL21 (DE3)", "T9 sequence (P07237 235-479 E359A)": "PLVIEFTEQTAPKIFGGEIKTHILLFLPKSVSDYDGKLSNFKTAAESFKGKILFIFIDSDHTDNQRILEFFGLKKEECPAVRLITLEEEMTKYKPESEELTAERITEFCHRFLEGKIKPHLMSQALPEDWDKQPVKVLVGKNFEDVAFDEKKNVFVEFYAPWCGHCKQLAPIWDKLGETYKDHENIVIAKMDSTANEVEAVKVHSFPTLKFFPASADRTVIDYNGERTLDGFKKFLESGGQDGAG", "test": "Insulin reduction assay", "type": "biochemical", "settings": "rutin 100 μM", "method": "as §2, §3"}, "[12]": {"biological_target": "T10, MBP-PDI-b′xa′ E359K (Homo sapiens, UniProt P07237, E359K)", "T10 construct": "MBP-PDI-b′xa′(235–479); His-tag; made in house; host or cells: E. coli BL21 (DE3)", "T10 sequence (P07237 235-479 E359K)": "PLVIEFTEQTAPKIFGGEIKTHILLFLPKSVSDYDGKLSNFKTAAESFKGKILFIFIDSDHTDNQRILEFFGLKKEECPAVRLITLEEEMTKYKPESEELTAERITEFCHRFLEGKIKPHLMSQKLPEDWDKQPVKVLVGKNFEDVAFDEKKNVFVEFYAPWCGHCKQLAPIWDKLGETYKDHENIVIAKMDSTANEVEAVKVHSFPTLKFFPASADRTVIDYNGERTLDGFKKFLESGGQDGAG", "test": "Insulin reduction assay", "type": "biochemical", "settings": "rutin 100 μM", "method": "as §2, §3"}, "[13]": {"test_system": "platelet aggregation and fibrin generation", "settings": "cited from earlier work"}, "[14]": {"settings": "mouse models, dose of 0.5 mg kg^−1"}},
  "note": "pIC50: −log10 of the molar value.",
  "data": [
    {"smiles": "C[C@@H]1O[C@@H](OC[C@H]2O[C@@H](Oc3c(-c4ccc(O)c(O)c4)oc4cc(O)cc(O)c4c3=O)[C@H](O)[C@@H](O)[C@@H]2O)[C@H](O)[C@H](O)[C@H]1O", "note": "[rutin]", "values": [
      {"measurement": "pIC50", "setting": "[1]", "result": "~4.52"},
      {"measurement": "pIC50", "setting": "[2]", "result": 4.54},
      {"measurement": "pIC50", "setting": "[3]", "result": 4.51},
      {"measurement": "pIC50", "setting": "[4]", "result": 4.58},
      {"measurement": "pIC50", "setting": "[5]", "result": 4.73},
      {"measurement": "pIC50", "setting": "[6]", "result": 4.80},
      {"measurement": "inhibition at 100 µM", "setting": "[7]; increase of turbidity (OD650) at 100 min, K328E, read-out: Inhibitory efficiency (%)", "result": 99, "unit": "%"},
      {"measurement": "turbidity (OD650), raw kinetic read at 1:40:32", "setting": "[7]; last read (100 min), K328E alone 0.777", "result": 0.4},
      {"measurement": "inhibition at 100 µM", "setting": "[8]; increase of turbidity (OD650) at 100 min, H354A, read-out: Inhibitory efficiency (%)", "result": 82.9, "unit": "%"},
      {"measurement": "turbidity (OD650), raw kinetic read at 1:40:32", "setting": "[8]; last read (100 min), H354A alone 0.585", "result": 0.35},
      {"measurement": "turbidity (OD650), raw kinetic read at 1:40:32", "setting": "[9]; compound 100 μM, 1.5 μM protein, last read (100 min), WT alone 0.829", "result": 0.585},
      {"measurement": "inhibition at 100 µM", "setting": "[9]; rutin 100 μM, increase of turbidity (OD650) at 100 min, wt, read-out: Inhibitory efficiency (%)", "result": 100, "unit": "%"},
      {"measurement": "decrease of inhibitory efficiency compared with wt MBP-PDI-b′xa′", "setting": "[10]; L355R", "result": "modest decrease"},
      {"measurement": "inhibition at 100 µM", "setting": "[10]; increase of turbidity (OD650) at 100 min, L355R, read-out: Inhibitory efficiency (%)", "result": 98.4, "unit": "%"},
      {"measurement": "turbidity (OD650), raw kinetic read at 1:40:32", "setting": "[10]; last read (100 min), L355R alone 0.819", "result": 0.424},
      {"measurement": "inhibition at 100 µM", "setting": "[11]; increase of turbidity (OD650) at 100 min, E359A, read-out: Inhibitory efficiency (%)", "result": 86, "unit": "%"},
      {"measurement": "turbidity (OD650), raw kinetic read at 1:40:32", "setting": "[11]; last read (100 min), E359A alone 0.711", "result": 0.416},
      {"measurement": "inhibition at 100 µM", "setting": "[12]; increase of turbidity (OD650) at 100 min, E359K, read-out: Inhibitory efficiency (%)", "result": 88.8, "unit": "%"},
      {"measurement": "turbidity (OD650), raw kinetic read at 1:40:32", "setting": "[12]; last read (100 min), E359K alone 0.698", "result": 0.4},
      {"measurement": "reversal of inhibitory activities on PDI in vivo", "setting": "[13]; mouse model, infusion of PDI b′x fragment", "result": "rapidly reversed"},
      {"measurement": "fibrin generation in vivo", "setting": "[13]; [14]", "result": "blocked"},
      {"measurement": "platelet aggregation in vivo", "setting": "[13]; [14]", "result": "blocked"}
    ]}
  ]
}
